Assay results: PubChem BioAssay (NCI)
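Grown in 96-well plates, cells were treated for 48 hours with each compound at five concentrations. Insufficient inhibition: endpoint recorded as highest concentration tested. The concentration for full growth arrest is given as TGI.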

Legend:
Assay in all cases: DTP human tumour cell line panel, 48 h
CAKI-1 renal = system: CAKI-1 renal
UO-31 renal = system: UO-31 renal
HL-60(TB) leukemia = system: HL-60(TB) leukemia
EKVX NSCLC = system: EKVX NSCLC
MOLT-4 leukemia = system: MOLT-4 leukemia
SK-MEL-2 melanoma = system: SK-MEL-2 melanoma
ACHN renal = system: ACHN renal
KM20L2 colon = system: KM20L2 colon
HOP-62 NSCLC = system: HOP-62 NSCLC
LXFL 529 NSCLC = system: LXFL 529 NSCLC
786-0 renal = system: 786-0 renal
LOX IMVI melanoma = system: LOX IMVI melanoma
SF-268 CNS = system: SF-268 CNS
NCI-H226 lung = system: NCI-H226 lung
OVCAR-8 ovarian = system: OVCAR-8 ovarian
HT29 colon = system: HT29 colon
SR leukemia = system: SR leukemia
NCI-H522 lung = system: NCI-H522 lung
DMS 114 small cell lung = system: DMS 114 small cell lung
K-562 leukemia = system: K-562 leukemia
SK-OV-3 ovarian = system: SK-OV-3 ovarian
RXF 393 renal = system: RXF 393 renal
UACC-62 melanoma = system: UACC-62 melanoma
SF-295 CNS = system: SF-295 CNS
TK-10 renal = system: TK-10 renal
RPMI-8226 leukemia = system: RPMI-8226 leukemia
OVCAR-5 ovarian = system: OVCAR-5 ovarian
NCI-H460 lung = system: NCI-H460 lung
HCT-15 colon = system: HCT-15 colon
M14 melanoma = system: M14 melanoma
HCC-2998 colon = system: HCC-2998 colon
DLD-1 colon = system: DLD-1 colon
UACC-257 melanoma = system: UACC-257 melanoma
NCI-H23 lung = system: NCI-H23 lung
SNB-75 CNS = system: SNB-75 CNS
SNB-19 CNS = system: SNB-19 CNS
MALME-3M melanoma = system: MALME-3M melanoma
COLO 205 colon = system: COLO 205 colon
OVCAR-3 ovarian = system: OVCAR-3 ovarian
SW-620 colon = system: SW-620 colon
SK-MEL-28 melanoma = system: SK-MEL-28 melanoma
SK-MEL-5 melanoma = system: SK-MEL-5 melanoma
SF-539 CNS = system: SF-539 CNS
SN12C renal = system: SN12C renal
KM12 colon = system: KM12 colon
A549 NSCLC = system: A549 NSCLC
SNB-78 CNS = system: SNB-78 CNS
DMS 273 small cell lung = system: DMS 273 small cell lung
XF 498 CNS = system: XF 498 CNS
U251 CNS = system: U251 CNS
RXF-631 renal = system: RXF-631 renal
HOP-18 NSCLC = system: HOP-18 NSCLC
HCT-116 colon = system: HCT-116 colon
OVCAR-4 ovarian = system: OVCAR-4 ovarian
IGROV1 ovarian = system: IGROV1 ovarian
CCRF-CEM leukemia = system: CCRF-CEM leukemia
HOP-92 NSCLC = system: HOP-92 NSCLC
A498 renal = system: A498 renal
MDA-N = system: MDA-N
BT-549 breast = system: BT-549 breast
NCI/ADR-RES ovarian = system: NCI/ADR-RES ovarian
HS 578T breast = system: HS 578T breast
PC-3 prostate = system: PC-3 prostate
DU-145 prostate = system: DU-145 prostate
MDA-MB-231 breast = system: MDA-MB-231 breast
T-47D breast = system: T-47D breast
M19-MEL melanoma = system: M19-MEL melanoma
MDA-MB-435 = system: MDA-MB-435

With `O=S(=O)(O)C1=C2Sc3ccccc3N=C2c2ccccc2C1` the TGI (CAKI-1 renal) was 34.7 µM, the TGI (UO-31 renal) was 33.6 µM and the TGI (HL-60(TB) leukemia) was 21.2 µM. It also gave a TGI (EKVX NSCLC) of 32 µM, a TGI (MOLT-4 leukemia) of 29.1 µM and a TGI (SK-MEL-2 melanoma) of 35.7 µM. For the same molecule, the TGI (ACHN renal) was 25.1 µM, the TGI (KM20L2 colon) was 34.3 µM and the TGI (HOP-62 NSCLC) was 35 µM. For the same molecule, the TGI (LXFL 529 NSCLC) was 24.6 µM, the TGI (786-0 renal) was 31.4 µM and the TGI (LOX IMVI melanoma) was 25.5 µM. The TGI (SF-268 CNS) was 27.5 µM, the TGI (NCI-H226 lung) was 35.5 µM and the TGI (OVCAR-8 ovarian) was 31.5 µM. For the same molecule, the TGI (HT29 colon) was 40 µM, the TGI (SR leukemia) was 20.6 µM and the TGI (NCI-H522 lung) was 31.3 µM. It also gave a TGI (DMS 114 small cell lung) of 22.2 µM, a TGI (K-562 leukemia) of 36.1 µM and a TGI (SK-OV-3 ovarian) of 44.1 µM. It also gave a TGI (RXF 393 renal) of 35.1 µM, a TGI (UACC-62 melanoma) of 26.4 µM and a TGI (SF-295 CNS) of 26.7 µM. The TGI (TK-10 renal) was 32.9 µM, the TGI (RPMI-8226 leukemia) was 38.6 µM and the TGI (OVCAR-5 ovarian) was 34.5 µM. The TGI (NCI-H460 lung) was 40 µM, the TGI (HCT-15 colon) was 27.3 µM and the TGI (M14 melanoma) was 25.5 µM. It also gave a TGI (HCC-2998 colon) of 31.4 µM, a TGI (DLD-1 colon) of 32.5 µM and a TGI (UACC-257 melanoma) of 31.4 µM. The TGI (NCI-H23 lung) was 31.1 µM, the TGI (SNB-75 CNS) was 32.5 µM and the TGI (SNB-19 CNS) was 51.6 µM. For the same molecule, the TGI (MALME-3M melanoma) was 30 µM, the TGI (COLO 205 colon) was 30.3 µM and the TGI (OVCAR-3 ovarian) was 31.3 µM. The TGI (SW-620 colon) was 29.8 µM, the TGI (SK-MEL-28 melanoma) was 31.4 µM and the TGI (SK-MEL-5 melanoma) was 26.4 µM. For the same molecule, the TGI (SF-539 CNS) was 24.4 µM, the TGI (SN12C renal) was 26.8 µM and the TGI (KM12 colon) was 29.5 µM. It also gave a TGI (A549 NSCLC) of 34.3 µM, a TGI (SNB-78 CNS) of 34 µM and a TGI (DMS 273 small cell lung) of 29.5 µM. For the same molecule, the TGI (XF 498 CNS) was 31.8 µM, the TGI (U251 CNS) was 25.4 µM and the TGI (RXF-631 renal) was 29.5 µM. For the same molecule, the TGI (HOP-18 NSCLC) was 25.2 µM, the TGI (HCT-116 colon) was 28.5 µM and the TGI (OVCAR-4 ovarian) was 33.8 µM. It also gave a TGI (IGROV1 ovarian) of 28.1 µM, a TGI (CCRF-CEM leukemia) of 24.3 µM and a TGI (HOP-92 NSCLC) of 22 µM. It also gave a TGI (A498 renal) of 32.8 µM.

`Cc1cc(Cl)cc2c1NC(=O)C2(O)CC(=O)c1ccco1` (centres undefined) was tested, and the TGI (CAKI-1 renal) was > 100 µM, the TGI (UO-31 renal) was > 100 µM and the TGI (EKVX NSCLC) was > 100 µM. The TGI (MOLT-4 leukemia) was 81.2 µM, the TGI (SK-MEL-2 melanoma) was > 100 µM and the TGI (ACHN renal) was > 100 µM. The TGI (HOP-62 NSCLC) was > 100 µM, the TGI (MDA-N) was 22.9 µM and the TGI (BT-549 breast) was > 100 µM. The TGI (NCI/ADR-RES ovarian) was > 100 µM, the TGI (LXFL 529 NSCLC) was > 100 µM and the TGI (HS 578T breast) was > 100 µM. The TGI (786-0 renal) was > 100 µM, the TGI (LOX IMVI melanoma) was > 69.8 µM and the TGI (SF-268 CNS) was > 100 µM. For the same molecule, the TGI (NCI-H226 lung) was > 100 µM, the TGI (OVCAR-8 ovarian) was > 100 µM and the TGI (HT29 colon) was > 100 µM. For the same molecule, the TGI (SR leukemia) was 64.7 µM, the TGI (NCI-H522 lung) was > 100 µM and the TGI (PC-3 prostate) was > 100 µM. For the same molecule, the TGI (DMS 114 small cell lung) was > 100 µM, the TGI (K-562 leukemia) was 54.6 µM and the TGI (DU-145 prostate) was > 100 µM. For the same molecule, the TGI (SK-OV-3 ovarian) was > 100 µM, the TGI (RXF 393 renal) was > 100 µM and the TGI (UACC-62 melanoma) was 67.5 µM. The TGI (SF-295 CNS) was > 100 µM, the TGI (TK-10 renal) was > 100 µM and the TGI (RPMI-8226 leukemia) was > 83.7 µM. For the same molecule, the TGI (OVCAR-5 ovarian) was > 100 µM, the TGI (NCI-H460 lung) was > 100 µM and the TGI (HCT-15 colon) was > 100 µM. For the same molecule, the TGI (M14 melanoma) was > 100 µM, the TGI (HCC-2998 colon) was > 100 µM and the TGI (DLD-1 colon) was > 100 µM. The TGI (UACC-257 melanoma) was > 100 µM, the TGI (NCI-H23 lung) was > 100 µM and the TGI (MDA-MB-231 breast) was > 100 µM. The TGI (SNB-75 CNS) was > 100 µM, the TGI (SNB-19 CNS) was > 100 µM and the TGI (MALME-3M melanoma) was > 76.1 µM. The TGI (COLO 205 colon) was > 100 µM, the TGI (OVCAR-3 ovarian) was > 100 µM and the TGI (SW-620 colon) was > 100 µM. The TGI (SK-MEL-28 melanoma) was > 100 µM, the TGI (T-47D breast) was > 100 µM and the TGI (SK-MEL-5 melanoma) was 51.5 µM. For the same molecule, the TGI (SF-539 CNS) was > 100 µM, the TGI (SN12C renal) was > 100 µM and the TGI (M19-MEL melanoma) was 30.9 µM. The TGI (KM12 colon) was > 100 µM, the TGI (A549 NSCLC) was > 100 µM and the TGI (SNB-78 CNS) was > 100 µM. The TGI (DMS 273 small cell lung) was > 100 µM, the TGI (XF 498 CNS) was > 100 µM and the TGI (U251 CNS) was > 100 µM. The TGI (RXF-631 renal) was > 100 µM, the TGI (HOP-18 NSCLC) was > 100 µM and the TGI (MDA-MB-435) was 14.2 µM. The TGI (HCT-116 colon) was > 100 µM, the TGI (OVCAR-4 ovarian) was 23.9 µM and the TGI (IGROV1 ovarian) was > 100 µM. For the same molecule, the TGI (CCRF-CEM leukemia) was 57.3 µM, the TGI (HOP-92 NSCLC) was > 100 µM and the TGI (A498 renal) was > 100 µM.
